From patent publication US20040244713A1, “Method for treating animals or masses of water with compositions comprising quinone compounds” (priority 2003, published 2004)
Marks after values point to notes of the source that are not given here.

Assays:
Rainbow trout = assay: Toxicity test LC50 on fish fauna, Rainbow trout; format: in vivo
Excerpt: (§8) The table below lists the results of the toxicity tests performed on fish fauna and on some phyto- and zooplankton species considered among the possible targets of the claimed method.

Eimeria acervulina = assay: Coccid infection in chicken, Eimeria acervulina; format: in vivo; conditions: chickens (Ross males), 250 ppm of MPB in feed, inoculated orally with 100,000 oocysts; fecal count 16 hours before killing; n=6
Method: (§1) The effect of a preparation comprising menadione dimethylpirymidinol bisulfite (MPB) on coccid infection in chicken was assessed.
(§2) Composition of the preparation (per Kg of final preparation):
(§3) MPB coated with vegetable hydrogenated fatty acids (1:1 inclusion ratio) 500 g,
(§4) This preparation was added in the amount of 1 Kg per ton of feed, so that the final concentration of MPB was equal to 250 ppm of MPB (equivalent to approximately 109 ppm of menadione). Since a chicken eats on average 70-80 grams of feed per day, the daily dose of MPB was equal to approximately 17-20 mg/animal per day.
(§5) The chickens (Ross males) were raised in individual cages for four weeks with a commercial feed in comparison with the same feed integrated with said preparation at the dose of 1 Kg/ton.
(§6) At the end of the third week, the chickens were weighed and divided into uniform weight groups within each treatment and were orally inoculated (1 ml) respectively with 50,000 oocysts of Eimeria tenella or 100,000 oocysts of E. acervulina. The fecal count of the oocysts was performed (method described in Hodgson J. N. 1970, Exp. Parasitol. 28:99-102) 16 hours before killing the animals.
(§7) The coccidiostatic effect is confirmed by the score of the lesions six days after inoculation (method described by Johson J. et Al. 1970, Exp. Parasitol. 28:30-36).

Isochris Galbana = assay: Toxicity test LC50 on Isochris Galbana; format: cell-based
Excerpt: as §8

[1] = Photodegradability in sunlight and UV light; format: physicochemical; conditions: 10-ppm solution in drinking water (pH 6.5-7.5)
Method: In a fully similar manner, the same behaviour is confirmed if one assesses the photodegradability in sunlight and UV light (the radiation test was performed on a 10-ppm solution in drinking water (pH 6.5-7.5)

[2] = Hydrolysis test performed in darkness; format: physicochemical
Eimeria tenella = assay: Coccid infection in chicken, Eimeria tenella; format: in vivo; conditions: chickens (Ross males), 250 ppm of MPB in feed, inoculated orally with 50,000 oocysts; fecal count 16 hours before killing; n=6
Method: as §1, §2, §3, §4, §5, §6, §7

[3] = tested on: Dreissena Polimorfa Larvae; assay: Toxicity test LC50 on Dreissena Polimorfa larvae; conditions: in vivo
Excerpt: as §8

Artemia Salina = assay: Toxicity test LC50 on Artemia Salina; conditions: in vivo
Excerpt: as §8

Eurytemora Affinis = assay: Toxicity test LC50 on Eurytemora Affinis; conditions: in vivo
Excerpt: as §8

[4] = Biodegradability OECD 301 A (92/69/EEC C4-A); format: physicochemical
Excerpt: The degradability of a substance is normally a factor that is impossible to predict on a structural basis. […] On the basis of the available data related to the compounds that are chemically more similar to the derivatives of menadione described here, one could have expected a degradability comprised between the 0% (percentage calculated on the initial mass of product expressed as mg/l) of menadione (2-methyl-1,4-naphthalenedione) and the 17% (assessed after 28 days) of menadione sodium bisulfite (where the calculation was performed by using the OECD301 A guidelines annexed to EEC directive 92/69/EEC C4-A).
Finally, biodegradability according to the 92/69/EEC C4-A regulation was also assessed.

## CC1(S(=O)(=O)O)CC(=O)c2ccccc2C1=O.Cc1cc(C)[nH]c(=O)n1 (stereo not drawn) [MPB, menadione dimethylpirymidinol bisulfite]
Rainbow trout
  LC50 Rainbow trout (assessed on 96 h): 0.4 ppm
Eimeria acervulina
  Excretion of oocysts, Eimeria acervulina: 5.9 ± 0.8^a ×10^8
Isochris Galbana
  LC50 Isochris Galbana: 0.5 ppm
[1]
  Light exp. Total Degr.: 48 h
  Light exp. ½ life: 10 h
[2]; PH 6.8, in darkness
  ½ LIFE, hydrolysis: 48 h
[2]; PH 9, in darkness
  ½ LIFE, hydrolysis: <3 h
Eimeria tenella
  Excretion of oocysts, Eimeria tenella: 0.44 ± 0.05^a ×10^8
[3]
  LC50 Dreissena Polimorfa Larvae: 1 ppm
Artemia Salina
  LC50 Artemia Salina: 5 ppm
Eurytemora Affinis
  LC50 Eurytemora Affinis: 5 ppm
[4]; 7 days after the beginning of the test
  degradability compared with that of MSB: as much as eight times higher
[4]; after 7 days
  % biodegr. OECD 301 A: 37%
[4]; after 14 days
  % biodegr. OECD 301 A: 37%
[4]; after 28 days
  % biodegr. OECD 301 A: 40%
